Starred links: 1 amine or outer side, 2 acyl side, 3 side chain; linkers in the order of their positions; H or OH if unused. Positions of bridges follow the written chain, without caps; N, C: chain ends. Non-standard residues stand in square brackets, D forms with d. Residues, ends and D or L forms follow the SMILES beside them. *: point of attachment. Orn(4R-OH,5R-OCH2CH2NMe3+) = C[N+](C)(C)CCO[C@@H](N[*:3])[C@H](O)C[C@H](N[*:1])C(=O)[*:2]; pTerphenylCO(4''-OnC5H11) = CCCCCOc1ccc(-c2ccc(-c3ccc(C(=O)*)cc3)cc2)cc1; hTyr(3S-OH,4S-OH) = N[C@H](C(=O)O)[C@H](O)[C@@H](O)c1ccc(O)cc1; Pro(3S-OH,4S-Me) = C[C@H]1CN[C@H](C(=O)O)[C@H]1O; Hyp = O=C(O)[C@@H]1C[C@@H](O)CN1
Assays:
C. albicans strain 529L = assay: Rat model of vulvovaginal candidiasis, vaginal lavage and tissue burden; type: in vivo, Candida albicans
A. fumigatus AF293 [1] = assay: Murine model of pulmonary aspergillosis (Example 19), terminal lung burden; type: in vivo, Aspergillus fumigatus
Protocol: A secondary endpoint for the study was terminal lung tissue burden. Immediately following confirmation of death, carcasses were frozen at −20° C. prior to tissue dissection and processing. The frozen carcasses were thawed at room temperature, the lungs removed and placed into pre-weighed bead-beating tubes containing 2 mL of PBS and subjected to mechanical disruption. Organ homogenates were diluted further in PBS and quantitatively cultured for A. fumigatus onto SABC and incubated at 30° C. for 24-48 hours.
2. Lung tissue burden data were analysed using the non-parametric Kruskal-Wallis test and if this was statistically significant all pairwise comparisons were analyzed (Conover-Inman).

A. fumigatus AF293 [2] = assay: Pulmonary aspergillosis, prophylaxis, neutropenic ICR mice (Examples 17, 18), survival; type: in vivo, Aspergillus fumigatus
Protocol: Intranasal infection with A. fumigatus AF293 (10^5 CFU/mouse) on Day 0. Prophylaxis CD101 as a single dose (IP; 5, 10, 20 mg/kg) or posaconazole (PO; 2 and 10 mg/kg) 1 day prior to infection. Survival monitored for 10 days.
Intranasal challenge with A. fumigatus AF293 (10^5 CFU/mouse) was initiated on Day 0 and prophylaxis with CD101 as a single dose (IP; 5, 10, 20 mg/kg) or posaconazole (PO; 2 and 10 mg/kg) was started 1 day prior to infection. Survival was monitored for 10 days.

[3] = 5 mg/kg SC Dosed Once, lavage Day 7 post infection
[4] = 5 mg/kg SC Dosed Once, lavage Day 9 post infection
[5] = 5 mg/kg SC Dosed Once, terminal vaginal tissue Day +9 post infection
[6] = 5 mg/kg SC Dosed Twice, lavage Day 1 post infection, pre-treatment
[7] = 5 mg/kg SC Dosed Twice, lavage Day 2 post infection
[8] = 5 mg/kg SC Dosed Twice, lavage Day 3 post infection
[9] = 5 mg/kg SC Dosed Twice, lavage Day 5 post infection
[10] = 5 mg/kg SC Dosed Twice, lavage Day 7 post infection
[11] = 5 mg/kg SC Dosed Twice, lavage Day 9 post infection
[12] = 5 mg/kg SC Dosed Twice, terminal vaginal tissue Day +9 post infection
[13] = 10 mg/kg SC Dosed Once, lavage Day 1 post infection, pre-treatment
[14] = 10 mg/kg SC Dosed Once, lavage Day 2 post infection
[15] = 10 mg/kg SC Dosed Once, lavage Day 3 post infection
[16] = 10 mg/kg SC Dosed Once, lavage Day 5 post infection
[17] = 10 mg/kg SC Dosed Once, lavage Day 7 post infection
[18] = 10 mg/kg SC Dosed Once, lavage Day 9 post infection
[19] = 10 mg/kg SC Dosed Once, terminal vaginal tissue Day +9 post infection

CCCCCOc1ccc(-c2ccc(-c3ccc(C(=O)N[C@H]4C[C@@H](O)[C@@H](OCC[N+](C)(C)C)NC(=O)[C@@H]5[C@@H](O)[C@@H](C)CN5C(=O)[C@H]([C@@H](C)O)NC(=O)[C@H]([C@H](O)[C@@H](O)c5ccc(O)cc5)NC(=O)[C@@H]5C[C@@H](O)CN5C(=O)[C@H]([C@@H](C)O)NC4=O)cc3)cc2)cc1 [CD101] ({pTerphenylCO(4''-OnC5H11)}-[Orn(4R-OH,5R-OCH2CH2NMe3+)]T[Hyp][hTyr(3S-OH,4S-OH)]T[Pro(3S-OH,4S-Me)]; lactam 1-C)
Group Geometric mean (C. albicans strain 529L; [3]): 4.56 × 10^3 CFU/mL
Log Group Geometric mean (C. albicans strain 529L; [3]): 3.66 CFU/mL
Log reduction from vehicle control (C. albicans strain 529L; [3]): 0.52 CFU/mL
Group Geometric mean (C. albicans strain 529L; [4]): 4.58 × 10^3 CFU/mL
Log Group Geometric mean (C. albicans strain 529L; [4]): 3.66 CFU/mL
Log reduction from vehicle control (C. albicans strain 529L; [4]): 0.64 CFU/mL
Group Geometric mean (C. albicans strain 529L; [5]): 1.37 × 10^5 CFU/g
Log Group Geometric mean (C. albicans strain 529L; [5]): 5.14 CFU/g
Group Geometric mean (C. albicans strain 529L; [6]): 1.83 × 10^3 CFU/mL
Log Group Geometric mean (C. albicans strain 529L; [6]): 3.26 CFU/mL
Log reduction from vehicle control (C. albicans strain 529L; [6]): −0.83 CFU/mL
Group Geometric mean (C. albicans strain 529L; [7]): 2.56 × 10^2 CFU/mL
Log Group Geometric mean (C. albicans strain 529L; [7]): 2.41 CFU/mL
Log reduction from vehicle control (C. albicans strain 529L; [7]): 1.29 CFU/mL
Group Geometric mean (C. albicans strain 529L; [8]): 1.95 × 10^2 CFU/mL
Log Group Geometric mean (C. albicans strain 529L; [8]): 2.29 CFU/mL
Log reduction from vehicle control (C. albicans strain 529L; [8]): 1.28 CFU/mL
Group Geometric mean (C. albicans strain 529L; [9]): 1.73 × 10^3 CFU/mL
Log Group Geometric mean (C. albicans strain 529L; [9]): 3.24 CFU/mL
Log reduction from vehicle control (C. albicans strain 529L; [9]): 0.98 CFU/mL
Group Geometric mean (C. albicans strain 529L; [10]): 6.47 × 10^2 CFU/mL
Log Group Geometric mean (C. albicans strain 529L; [10]): 2.81 CFU/mL
Log reduction from vehicle control (C. albicans strain 529L; [10]): 1.37 CFU/mL
Group Geometric mean (C. albicans strain 529L; [11]): 1.28 × 10^3 CFU/mL
Log Group Geometric mean (C. albicans strain 529L; [11]): 3.11 CFU/mL
Log reduction from vehicle control (C. albicans strain 529L; [11]): 1.19 CFU/mL
Group Geometric mean (C. albicans strain 529L; [12]): 4.00 × 10^4 CFU/g
Log Group Geometric mean (C. albicans strain 529L; [12]): 4.60 CFU/g
Group Geometric mean (C. albicans strain 529L; [13]): 3.68 × 10^2 CFU/mL
Log Group Geometric mean (C. albicans strain 529L; [13]): 2.57 CFU/mL
Log reduction from vehicle control (C. albicans strain 529L; [13]): −0.13 CFU/mL
Group Geometric mean (C. albicans strain 529L; [14]): 2.48 × 10^2 CFU/mL
Log Group Geometric mean (C. albicans strain 529L; [14]): 2.39 CFU/mL
Log reduction from vehicle control (C. albicans strain 529L; [14]): 1.30 CFU/mL
Group Geometric mean (C. albicans strain 529L; [15]): 23.2 CFU/mL
Log Group Geometric mean (C. albicans strain 529L; [15]): 1.37 CFU/mL
Log reduction from vehicle control (C. albicans strain 529L; [15]): 2.21 CFU/mL
Group Geometric mean (C. albicans strain 529L; [16]): 1.73 CFU/mL
Log Group Geometric mean (C. albicans strain 529L; [16]): 0.24 CFU/mL
Group Geometric mean (C. albicans strain 529L; [17]): 2.59 CFU/mL
Log Group Geometric mean (C. albicans strain 529L; [17]): 0.41 CFU/mL
Log reduction from vehicle control (C. albicans strain 529L; [17]): 3.77 CFU/mL
Group Geometric mean (C. albicans strain 529L; [18]): 2.75 CFU/mL
Log Group Geometric mean (C. albicans strain 529L; [18]): 0.44 CFU/mL
Log reduction from vehicle control (C. albicans strain 529L; [18]): 3.86 CFU/mL
Group Geometric mean (C. albicans strain 529L; [19]): 5.52 CFU/g
Log Group Geometric mean (C. albicans strain 529L; [19]): 0.74 CFU/g
Log reduction from vehicle control (C. albicans strain 529L; [19]): 4.75 CFU/g
burden reduction (C. albicans strain 529L; CD101 5 mg/kg once or twice, lavage Day 5 post infection): about 1 Log10 CFU/m
rats having burden below the limit of detection (C. albicans strain 529L; CD101 10 mg/kg dosed once, lavage Day 5 post infection): 5/6
rats with burdens below the levels of detection (C. albicans strain 529L; CD101 10 mg/kg dosed once, terminal vaginal tissue Day 9): 5/6
reduction in burden (C. albicans strain 529L; all doses of CD101, lavage Day 2 post infection): about 1.3 Log10 CFU/mL
Group Geometric mean (lung burden) (A. fumigatus AF293 [1]; CD101 20 mg/kg IP Day −1): 4.37 × 10^3 CFU/g
Log10 Group Geometric mean (lung burden) (A. fumigatus AF293 [1]; CD101 20 mg/kg IP Day −1): 3.64 CFU/g
Log10 reduction from vehicle control (A. fumigatus AF293 [1]; CD101 20 mg/kg IP Day −1): 0.53 CFU/g
Group Geometric mean (lung burden) (A. fumigatus AF293 [1]; CD101 60 mg/kg IP Day −1): 1.38 × 10^4 CFU/g
Log10 Group Geometric mean (lung burden) (A. fumigatus AF293 [1]; CD101 60 mg/kg IP Day −1): 4.14 CFU/g
Log10 reduction from vehicle control (A. fumigatus AF293 [1]; CD101 60 mg/kg IP Day −1): 0.03 CFU/g
survival rate (A. fumigatus AF293 [2]; CD101 20 mg/kg IP single dose 1 day prior to infection, 10 days): 30%
survival (A. fumigatus AF293 [2]; single CD101 dose (IP; 5, 10, 20 mg/kg) one day prior to infection): dose-dependent increase in survival rate

Source: US20190307843A1, “SINGLE DOSE METHODS FOR PREVENTING AND TREATING FUNGAL INFECTIONS” (Cidara Therapeutics, Inc., priority 2016, published 2019)
